For two compounds, Ki results are on record in US8507469B2, “Azetidin compounds suitable for treating disorders that respond to modulation of the serotonin 5-HT6 receptor” (Abbott GmbH & Co. KG, priority 2007, dated 2013).

The term Ki denotes a measure of affinity in units of concentration, obtained from inhibition or displacement. A higher Ki goes with lower affinity.

Counter-ions that a name gives are not always drawn.

For experiment [1], the target named is T1, h-5-HT6 receptor (Homo sapiens, UniProt P50406).
T1 construct: expressed in transfected cells
Nature of the experiment: 5-HT6 receptor binding assay (displacement of [3H]-LSD). The settings on record: HEK293 membranes, 1 nM [3H]-LSD. As to the method: (§1) Cells from stable clonal cell lines expressing the corresponding receptor (5-HT6, 1-adrenergic, dopamine D2 or histamine H1 receptors) were washed with PBS (w/o Ca^++, Mg^++) and harvested in PBS with 0.02% EDTA. The cells were collected by centrifugation at 500 g for 10 min. at 4° C., washed with PBS and centrifuged (500 g, 10 min. 4° C.). The pellets were stored at −80° C. until use. For membrane preparation, the thawed cell pellet was resuspended in ice-cold sucrose buffer (0.25 M sucrose, 10 mM Hepes (pH 7.4), 1 mM Phenylmethylsulfonyl fluoride (PMSF) in DMSO, […] Pepstatin-A, 3 mM EDTA, 0.025% Bacitracin) and homogenized with a Branson Sonifier W-250 (Settings: Timer 4; Output Control 3; Duty Cycle constant; 2 to 3 cycles). Cell disruption was checked with the aid of a microscope. Remaining unbroken cells were pelleted at 1.000 g for 10 min. at 4° C. The sucrose buffer supernatant was then centrifuged at 60.000 g for 1 h at 4° C. (Beckman Ultrazentrifuge XL 80). The pellet was resuspended in 30 ml ice-cold Tris buffer (20 mM TRIS (pH 7.4), […] Pepstatin A, 0.1 mM PMSF, 3 mM EDTA) by pipetting through a 10 ml serological pipet and centrifuged for 1 h at 4° C. at 60.000 g. A final resuspension was performed in a small volume of ice-cold Tris buffer (see above) by pressing through a serological pipet followed by ultrasonic treatment with a Branson Sonifier W-250 (Settings: Timer 1; Output Control 3; Duty Cycle constant; 1 cycle). Protein concentration was determined (BCA-Kit; Pierce) and aliquots stored at −80° C. or in liquid nitrogen for long-term storage.
(§2) All receptor binding experiments were carried out in the corresponding assay buffer in a total volume of 200 μl in the presence of various concentrations of test compound (10^−5 M to 10^−9 M, tenfold serial dilution, duplicate determinations). The assays were terminated by filtration on polyethylenimine (PEI 0.1% or 0.3%) presoaked Packard Unifilter Plates (GF/C or GF/B) with a Tomtec MachIII U 96well-plate harvester. After the plates had been dried for 2 h at 55° C. in a drying chamber scintillation cocktail (BetaPlate Scint; PerkinElmer) was added. Radioactivity was measured in a Microbeta Trilux two hours after the addition of the scintillation mixture. Data derived from liquid scintillation counting were analysed by iterative non-linear regression analysis with the use of the Statistical Analysis System (SAS): a program similar to “LIGAND” as described by Munson and Rodbard (Analytical Biochemistry 107, 220-239 (1980).
HEK293 cells stably expressing the h-5-HT6 receptor (NCBI Reference Sequence XM 001435) were cultured in RPMI1640 medium supplemented with 25 mM HEPES, 10% fetal calf serum and 1-2 mM glutamine. The membrane preparation was performed as described in section 1. […] Non-specific binding was defined with 1 μM methiothepin. The binding reaction was carried out for 3.5 h at room temperature. During the incubation, the plates were shaken on a plate shaker at 100 rpm and terminated by filtration on Packard Unifilter GF/C (0.1% PEI) plates, followed by 2 wash cycles with ice-cold 50 mM Tris-HCl, 5 mM CaCl2.
(§3) Data derived from liquid scintillation counting were analyzed by iterative non-linear regression analysis with the use of the Statistical Analysis System (SAS): a program similar to “LIGAND” as described by Munson and Rodbard (Anal. Biochem. 1980, 107, 220-239). Fitting was performed according to formulae described by Feldman (Anal. Biochem. 1972, 48, 317-338). IC50, nH and Ki values were expressed as geometrical mean.
A general note: Displacement assays read how much labelled ligand stays bound in the presence of the test substance.

Experiment [2] concerns the target T2, dopamine D2 receptor (Homo sapiens, UniProt P14416).
T2 construct: expressed in transfected cells
In words: Dopamine D2 receptor binding assay (displacement of [125I]-iodospiperone). The settings on record: HEK293 membranes, 0.01 nM [125I]-iodospiperone. How it is done: as §1, §2
HEK293 cells stably expressing the dopamine D2 receptor (NCBI Reference Sequence NM_000795) were cultured in RPMI1640 medium supplemented with 25 mM HEPES, 10% fetal calf serum and 1-2 mM glutamine. The membrane preparation was performed as described in section 1. […] On the day of the assay, the membranes were thawed, diluted in assay buffer (50 mM Tris-HCl, 120 mM NaCl, 5 mM MgCl2, 5 mM KCl, 1.5 mM CaCl2, pH 7.4) to a concentration of 15 μg protein/assay and homogenized by gentle vortexing. For inhibition studies, 0.01 nM [^125I]-iodospiperone (PerkinElmer Life Sciences, NEX284) was incubated in the presence of various concentrations of test compound in assay buffer. Non-specific binding was defined with 1 μM haloperidol. The binding reaction was carried out for 1 h at room temperature and terminated by filtration on Packard Unifilter GF/B (0.1% PEI) plates, followed by 6 wash cycles with an ice-cold 7% polyethylenglycol solution.
as §3

Experiment [3] addresses T3, α1-adrenergic receptor (Homo sapiens, UniProt P35348).
T3 construct: expressed in transfected cells
In words: α1-adrenergic receptor binding assay (displacement of [3H]-prazosine). The settings on record: CHO-K1 membranes, 0.1 nM [3H]-prazosine. As to the method:
as §1, §2
CHO-K1 cells stably expressing the 1-adrenergic receptor (NCBI Reference Sequence NM_033303) were cultured in RPMI1640 medium supplemented with 25 mM HEPES, 10% fetal calf serum and 1-2 mM glutamine. The membrane preparation was performed as described in section 1. […] On the day of the assay, the membranes were thawed, diluted in assay buffer (50 mM Tris-HCl, pH 7.4) to a concentration of 4 μg protein/assay and homogenized by gentle vortexing. […] Non-specific binding was defined with 1 μM phentolamine. The binding reaction was carried out for 1 h at room temperature and terminated by filtration on Packard Unifilter GF/C (0.1% PEI) plates, followed by 3 wash cycles with ice-cold assay buffer.
as §3

The target of experiment [4] is histamine H1 receptor (Homo sapiens, UniProt P35367). In words: H1 receptor binding assay (displacement of [3H]-pyrilamine). To be noted: CHO-K1 membranes, 1 nM [3H]-pyrilamine. As to the method:
as §1, §2
CHO-K1 cells stably expressing the histamine H1 receptor (Euroscreen-ES-390-C, NCBI Reference Sequence NM_000861) were cultured in RPMI1640 medium supplemented with 25 mM HEPES, 10% fetal calf serum and 1-2 mM glutamine. The membrane preparation was performed as described in section 1. […] On the day of the assay, the membranes were thawed, diluted in assay buffer (50 mM Na2HPO4, 50 mM KH2PO4, pH 7.4) to a concentration of 6 μg protein/assay and homogenized by gentle vortexing. […] The binding reaction was carried out for 50 minutes at room temperature and terminated by filtration on Packard Unifilter GF/C (0.3% PEI) plates, followed by 2 wash cycles with ice-cold assay buffer.
as §3

T1 sequence (P50406 whole entry): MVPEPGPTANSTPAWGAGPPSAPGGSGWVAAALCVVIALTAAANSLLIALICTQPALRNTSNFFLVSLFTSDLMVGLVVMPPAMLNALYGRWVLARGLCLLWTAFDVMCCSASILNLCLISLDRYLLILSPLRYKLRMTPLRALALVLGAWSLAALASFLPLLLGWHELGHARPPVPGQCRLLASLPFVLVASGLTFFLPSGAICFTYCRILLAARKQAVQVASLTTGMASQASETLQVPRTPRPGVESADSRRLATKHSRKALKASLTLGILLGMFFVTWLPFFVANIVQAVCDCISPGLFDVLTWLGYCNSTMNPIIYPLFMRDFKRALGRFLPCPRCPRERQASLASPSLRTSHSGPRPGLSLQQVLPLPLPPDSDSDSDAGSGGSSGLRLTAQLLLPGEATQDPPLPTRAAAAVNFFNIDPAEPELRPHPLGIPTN
T2 sequence (P14416 whole entry): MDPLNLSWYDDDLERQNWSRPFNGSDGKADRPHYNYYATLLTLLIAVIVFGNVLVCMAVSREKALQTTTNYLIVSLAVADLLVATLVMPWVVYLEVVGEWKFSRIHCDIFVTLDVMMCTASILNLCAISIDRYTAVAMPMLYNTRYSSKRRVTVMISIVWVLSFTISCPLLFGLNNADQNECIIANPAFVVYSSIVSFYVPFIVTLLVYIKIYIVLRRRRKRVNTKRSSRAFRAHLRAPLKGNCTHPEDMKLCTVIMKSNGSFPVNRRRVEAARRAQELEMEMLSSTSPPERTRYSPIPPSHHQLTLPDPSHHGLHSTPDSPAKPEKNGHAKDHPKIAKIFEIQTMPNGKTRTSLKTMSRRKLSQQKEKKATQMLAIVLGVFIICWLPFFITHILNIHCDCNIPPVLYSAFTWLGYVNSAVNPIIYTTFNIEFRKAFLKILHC
T3 sequence (P35348 1-475 isoform P35348-2): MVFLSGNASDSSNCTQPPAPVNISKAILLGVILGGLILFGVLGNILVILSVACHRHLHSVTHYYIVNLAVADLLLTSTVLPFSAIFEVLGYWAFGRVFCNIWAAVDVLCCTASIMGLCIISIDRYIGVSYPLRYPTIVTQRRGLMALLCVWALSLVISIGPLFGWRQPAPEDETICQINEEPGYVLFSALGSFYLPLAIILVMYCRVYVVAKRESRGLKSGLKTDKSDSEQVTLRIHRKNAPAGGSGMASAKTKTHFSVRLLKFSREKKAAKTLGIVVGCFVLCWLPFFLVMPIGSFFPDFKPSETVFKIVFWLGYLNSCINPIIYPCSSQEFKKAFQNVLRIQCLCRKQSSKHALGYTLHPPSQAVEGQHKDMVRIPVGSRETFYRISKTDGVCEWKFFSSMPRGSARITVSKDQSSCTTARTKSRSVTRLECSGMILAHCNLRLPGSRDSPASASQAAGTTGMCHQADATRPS
histamine H1 receptor, sequence (P35367 whole entry): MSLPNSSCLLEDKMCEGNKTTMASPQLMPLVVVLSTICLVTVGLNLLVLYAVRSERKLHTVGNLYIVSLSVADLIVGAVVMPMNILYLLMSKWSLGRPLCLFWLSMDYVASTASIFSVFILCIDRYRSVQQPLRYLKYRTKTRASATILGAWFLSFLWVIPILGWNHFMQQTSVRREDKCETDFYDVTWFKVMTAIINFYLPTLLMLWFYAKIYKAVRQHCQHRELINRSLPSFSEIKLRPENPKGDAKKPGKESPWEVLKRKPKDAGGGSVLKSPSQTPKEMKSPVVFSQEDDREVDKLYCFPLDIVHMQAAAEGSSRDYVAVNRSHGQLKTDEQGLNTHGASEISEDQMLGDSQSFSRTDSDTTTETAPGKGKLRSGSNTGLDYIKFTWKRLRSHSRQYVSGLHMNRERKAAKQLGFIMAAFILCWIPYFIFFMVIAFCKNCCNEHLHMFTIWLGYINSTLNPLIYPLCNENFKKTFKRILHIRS

Turning to `O=S(=O)(c1cccc(C(F)(F)F)c1)N1CCc2cc(C3CNC3)ccc21` [compound 30, 5-Azetidin-3-yl-1-(3-trifluoromethyl-benzenesulfonyl)-2,3-dihydro-1H-indole, hydrochloride], the Ki is less than 5 nM in experiment [1], more than 1000 nM in experiment [2], more than 1000 nM in experiment [3] and more than 1000 nM in experiment [4].

Turning to `O=S(=O)(c1ccccc1)n1ccc2cc(C3CNC3)cnc21` [compound 46, 5-Azetidin-3-yl-1-benzenesulfonyl-1H-pyrrolo[2,3-b]pyridine, formic acid salt], the inhibition constant (Ki) was less than 10 nM in experiment [1], more than 10000 nM in experiment [2], more than 10000 nM in experiment [3] and more than 10000 nM in experiment [4].
